Measured values reported in article PMC7763113, “Design, synthesis, cytotoxic activity, and apoptosis inducing effects of 4- and N-substituted benzoyltaurinamide derivatives” (Turkish Journal of Chemistry, 2020).
“And” between values parts separate entries of the source, which are not always exact repeats. Equal values may be shown once. “Also recorded” adds a separate entry of the source. Read-outs that look alike come from different tables or passages of the source.

Legend:
[1] = system: SH-SY5Y human neuroblastoma cells; assay: MTT cytotoxicity assay, SH-SY5Y; type: cell-based; conditions: mean ± SD, read-out: Cytotoxic activity IC50, SH-SY5Y
Text: (§1) The human neuroblastoma cells (SH-SY5Y), triple-negative breast cancer cells (MDA-MB-231), and human pancreatic cancer cells (Panc1) used in this study were purchased from the American Type Culture Collection (ATCC). The cells were suspended in complete Dulbecco’s modified Eagle medium (DMEM) (Life Technologies, Gibco BRL, Grand Island, NY) supplemented with 10% fetal bovine serum (FBS, Hyclone), 1% penicillin and streptomycin (100 U/mL, Invitrogen) and plated in cell culture dishes. The cultures were maintained at 37 °C in a 5% CO2 95% humidified atmosphere. After reaching 85% confluence, the cells were transferred to 96-well plates or culture dishes. For MTT assays, the cells were seeded into 96-well cell culture plates at a density of 2 × 10^3 cells per well and allowed to adhere for 24 h. The cells were treated with fresh medium containing experimental compounds (100, 10, 1 µM) and incubated in a 5% CO2 incubator for 48 and 72 h. For protein analysis, the cells were seeded into 6-well cell culture plates at a density of 0.5 x 10^6 cells/well and allowed to adhere to the surface for 24 h. The stock solutions of the test compounds (5 mM) were prepared in sterile DMSO, and these stocks were then appropriately diluted with the complete culture medium. DMSO levels were maintained below 1% in the test concentrations.
(§2) Briefly, following exposures, MTT (at a final concentration of 0.5 mg/mL) was added to each well, and plates were incubated for 2 h at 37 °C in a 5% CO2 humidified incubator. The reaction mixture was removed, and DMSO was added to each well. The plates were shaken at room temperature, and the absorbance was measured at 570 nm and 630 nm using a microplate reader (VersaMax, Molecular Devices, USA). Percent survival was plotted relative to vehicle control cells, which were normalized to 100% survival.

[2] = MTT cytotoxicity assay, MCF-10a (nontumorigenic); type: cell-based; conditions: MCF-10a nontumorigenic mammary cells, MCF-10a nontumorigenic human mammary cell line, mean ± SD, read-out: Cytotoxic activity IC50, MCF-10a
Text: [The source words this procedure for another cell line and reports this cell line under the same test.] as §1, §2

[3] = system: MDA-MB-231 triple-negative breast cancer cells; assay: MTT cytotoxicity assay, MDA-MB-231; type: cell-based, human; conditions: mean ± SD, read-out: Cytotoxic activity IC50, MDA-MB-231
Text: as §1, §2

[4] = system: PANC-1 human pancreatic cancer cells; assay: MTT cytotoxicity assay, PANC-1; type: cell-based; conditions: mean ± SD, read-out: Cytotoxic activity IC50, PANC-1
Text: as §1, §2

[5] = system: BAX, Bcl-2, Bcl-xL, caspase-3 and caspase-9 expression in MDA-MB-231 cell line; assay: Western blot of apoptotic proteins, MDA-MB-231; type: cell-based, human; conditions: for BAX protein levels: after only 24 h; for increase of caspase-9 activity: after only 48 h, relative to control; for decrease of Bcl-2 expression: after 24 and 48 h, compared to control
Experimental: (§3) The cells (0.5 × 10^6 cell/well) were seeded into 6 well plates and incubated for 24 h, and then treated with selected experimental compounds for 24 h and 48 h. Following incubation, the cells were washed with ice-cold 1X PBS and lysed in 1X cell lysis buffer. These lysates were quantified using the BCA protein assay. Then, the cell lysates were analyzed by western blot.
(§4) On a 12% (w/v) tris-glycine denaturing gel, 20 μg protein was separated by electrophoresis, and then transferred to a PVDF membrane. After blocking, the membrane was incubated with primary antibodies, anti-Bax rabbit monoclonal antibody, anti-Bcl-2 rabbit monoclonal antibody, anti-Bcl-xL rabbit monoclonal antibody, anti-caspase-3 rabbit monoclonal antibody, and anti-caspase-9 rabbit monoclonal antibody (1:1000, Cell Signaling Technology) at 4 °C overnight. Following the incubation, the membrane was incubated with an anti-β-actin mouse monoclonal antibody (1:1000, Cell Signaling Technology) at room temperature for 1 h. After washing, the membrane was incubated with peroxidase-conjugated secondary antibodies for 1 h to visualize labeled proteins by enhanced chemiluminescence.

[6] = system: BAX, Bcl-2, Bcl-xL, caspase-3 and caspase-9 expression in PANC-1 cell line; assay: Western blot of apoptotic proteins, PANC-1; type: cell-based, human; conditions: at IC50, 24 and 48 h, vs control
Experimental: as §3, §4

PANC-1 cells = assay: Annexin V-FITC/PI flow cytometry, PANC-1; type: cell-based, human; conditions: at cytotoxic concentrations, 48 h
Experimental: (§5) The cells were harvested after 48 h, washed with PBS, and analyzed using the Annexin V FITC/PI Apoptosis Detection kit (BioVision, Mountain View, CA, USA) with a benchtop flow cytometer (Accuri C6 flow cytometry, Becton Dickinson).

SH-SY5Y cells = assay: Annexin V-FITC/PI flow cytometry, SH-SY5Y; type: cell-based, human; conditions: 48 h, control 3.2%
Experimental: as §5

MDA-MB-231 cells = assay: Annexin V-FITC/PI flow cytometry, MDA-MB-231; type: cell-based, human; conditions: 48 h, control 1.2%
Experimental: as §5

Compound | melting point [°C] | IC50 ([1]; Homo sapiens, SH-SY5Y) [µM] | IC50 [2] [µM] | IC50 ([3]; Homo sapiens, MDA-MB-231, MTT) [µM] | IC50 ([4]; Homo sapiens, PANC-1, MTT) [µM] | BAX protein levels ([5]; Western blot) | further results
O=C(NCCS(=O)(=O)Nc1ccccc1)c1ccccc1 [Compound 1, N-(2-(N-phenylsulfamoyl)ethyl)benzamide] | 123.7 to 124.7 | 92.2 ± 1.5 | 78.2 ± 1.6 | 140.4 ± 1.1 | 86.7 ± 1.4 |  | 
O=C(NCCS(=O)(=O)N1CCOCC1)c1ccccc1 [Compound 5, N-(2-(morpholinosulfonyl)ethyl)benzamide] | 107 to 108 | 118 ± 1.8 | 89.6 ± 1.5 | 103 ± 1.7 | 24.2 ± 2.1 |  | 
O=C(NCCS(=O)(=O)N1CCOCC1)c1ccc(Cl)cc1 [Compound 6, 4-Chloro-N-(2-(morpholinosulfonyl)ethyl)benzamide] | 162 to 163 | 80.6 | 70.7 ± 1.8 | 79.1 | 8.8 ± 2.1 | significantly increased | IC50 [1]: 80.6 ± 1.9 µM; increase of caspase-9 activity [5]: 1.06 fold; IC50 ([3]; MTT): 136 ± 1.5 µM
COc1ccc(C(=O)NCCS(=O)(=O)N2CCOCC2)cc1 [Compound 7, 4-Methoxy-N-(2-(morpholinosulfonyl)ethyl)benzamide] | 183.5 to 184.5 | 134 ± 1.7 | 118 ± 1.2 | 136 | 1.2 ± 1.8 | significantly increased | apoptotic cell ratios (Annexin V-FITC/PI result) (PANC-1 cells): no significant changes; also recorded: negative; caspase-3 expression (in words) ([5]; Western blot): lack of change; decrease of Bcl-2 expression [5]: 2- to 3 fold; apoptotic cell ratios (SH-SY5Y cells): no positive results; percent of the positive apoptotic cells (MDA-MB-231 cells): no changes; IC50 ([3]; MTT): 79 µM and 77 µM; BAX expression [6]: effectively upregulated; Bcl-2 expression [6]: did not show any effect; Bcl-xL expression [6]: slightly decreased; caspase-3 expression [6]: effectively upregulated; caspase-9 expression [6]: effectively upregulated
Cc1ccc(C(=O)NCCS(=O)(=O)N2CCOCC2)cc1 [Compound 8, 4-Methyl-N-(2-(morpholinosulfonyl)ethyl)benzamide] | 174.2 to 175.2 | 79.3 ± 1.6 | 81.4 ± 1.3 | 81.5 ± 1.2 | 120.3 ± 1.2 |  | 
NS(=O)(=O)CCNC(=O)c1ccccc1 [Compound 9, N-(2-sulfamoylethyl)benzamide] | 162 to 163 | 81.1 ± 2.1 | 109 ± 1.1 | 99.8 ± 1.7 | 85.5 ± 1.7 |  | 
NS(=O)(=O)CCNC(=O)c1ccc(Cl)cc1 [Compound 10, 4-Chloro-N-(2-sulfamoylethyl)benzamide] | 158 to 159 | 38.6 ± 1.6 | 172.1 ± 1.4 | 77 | 89.1 ± 1.7 | significantly increased | increase of caspase-9 activity [5]: 1.12 fold; IC50 ([3]; MTT): 79.1 ± 1.3 µM; caspase-3 expression [6]: effectively increased
COc1ccc(C(=O)NCCS(N)(=O)=O)cc1 [Compound 11, 4-Methoxy-N-(2-sulfamoylethyl)benzamide] | 176 to 177 | 237.8 ± 1.7 | 81.1 ± 1.4 | 114 ± 1.3 | 83.8 ± 1.5 |  | 
Cc1ccc(C(=O)NCCS(N)(=O)=O)cc1 [Compound 12, 4-Methyl-N-(2-sulfamoylethyl)benzamide] | 181 to 182 | 79.5 ± 1.8 | 106 ± 1.4 | 81 ± 1.6 | 44.6 ± 1.9 |  | 

The next lines start with results.

melting point [°C] | Compound | IC50 ([1]; Homo sapiens, SH-SY5Y) [µM] | IC50 [2] [µM] | IC50 ([3]; Homo sapiens, MDA-MB-231, MTT) [µM] | IC50 ([4]; Homo sapiens, PANC-1, MTT) [µM] | BAX protein levels ([5]; Western blot) | further results
143.8 to 144.8 | O=C(NCCS(=O)(=O)Nc1ccccc1)c1ccc(Cl)cc1 [Compound 2, 4-Chloro-N-(2-(N-phenylsulfamoyl)ethyl)benzamide] | 29 ± 1.5 | 232.9 ± 2.1 | 99.7 ± 1.1 | 86.6 | significantly increased | IC50 ([4]; MTT): 86.6 ± 1.6 µM; BAX expression [6]: significantly upregulated; Bcl-2 expression [6]: significantly upregulated
121.3 to 122.3 | COc1ccc(C(=O)NCCS(=O)(=O)Nc2ccccc2)cc1 [Compound 3, 4-Methoxy-N-(2-(N-phenylsulfamoyl)ethyl)benzamide] | 57.4 ± 1.6 | 98.9 ± 1.2 | 111 ± 1.2 | 104 ± 1.6 |  | 
149.7 to 150.7 | Cc1ccc(C(=O)NCCS(=O)(=O)Nc2ccccc2)cc1 [Compound 4, 4-Methyl-N-(2-(N-phenylsulfamoyl)ethyl)benzamide] | 75.9 ± 1.6 | 132 ± 1.7 | 89.7 ± 1.5 | 86.6 ± 1.4 |  | 
110 to 111 | COc1ccc(NS(=O)(=O)CCNC(=O)c2ccccc2)cc1 [Compound 13, N-(2-(N-(4-methoxyphenyl)sulfamoyl)ethyl)benzamide] | 47.5 ± 1.5 | 217.8 ± 1.3 | 76.1 ± 1.6 | 17.9 ± 2.1 |  | 
160 to 161 | COc1ccc(NS(=O)(=O)CCNC(=O)c2ccc(Cl)cc2)cc1 [Compound 14, 4-Chloro-N-(2-(N-(4-methoxyphenyl)sulfamoyl)ethyl)benzamide] | 26 ± 1.4 | 109 ± 1.2 | 19.9 ± 1.7 | 22.5 ± 1.7 | significantly increased | apoptotic cell ratios (Annexin V-FITC/PI result) (PANC-1 cells): no significant changes; also recorded: negative; increase of caspase-9 activity [5]: 1.18 fold; apoptotic cell ratios (SH-SY5Y cells): 3.8%; percent of the positive apoptotic cells (MDA-MB-231 cells): 1.6%; BAX expression [6]: increased; Bcl-2 expression [6]: decrease; Bcl-xL expression [6]: decrease; caspase-3 expression [6]: increased; caspase-9 expression [6]: increased
112 to 113 | COc1ccc(NS(=O)(=O)CCNC(=O)c2ccc(OC)cc2)cc1 [Compound 15, 4-Methoxy-N-(2-(N-(4-methoxyphenyl)sulfamoyl)ethyl)benzamide] | 39.9 ± 1.6 | 118 ± 1.4 | 33.9 ± 1.8 | 18.1 ± 1.6 | significantly increased | apoptotic cell ratios (Annexin V-FITC/PI result) (PANC-1 cells): no significant changes; also recorded: negative; caspase-3 expression (in words) ([5]; Western blot): increased; caspase-9 expression levels (in words) ([5]; Western blot): did not exert any effect; decrease of Bcl-2 expression [5]: 2- to 3 fold; apoptotic cell ratios (SH-SY5Y cells): 3.9%; percent of the positive apoptotic cells (MDA-MB-231 cells): 1.4%; Bcl-xL expression [6]: opposite effect; caspase-3 expression [6]: opposite effect; caspase-9 expression [6]: opposite effect
127 to 128 | COc1ccc(NS(=O)(=O)CCNC(=O)c2ccc(C)cc2)cc1 [Compound 16, N-(2-(N-(4-methoxyphenyl)sulfamoyl)ethyl)-4-methylbenzamide] | 32.7 ± 1.7 | 132.9 ± 1.2 | 15.7 ± 1.9 | 21.4 ± 1.7 |  | 
